In publication PMC5078040 (Oncotarget, 2016):
pEC50: −log10 of the molar value.

Legend:
[1] = biological target: T1, p38-gamma (Homo sapiens, UniProt P53778); experiment: KinomeScan; type: binding; conditions: 1uM
T1 construct: purchased DiscoveRx KINOMEscan

[2] = biological target: T2, MARK3 (Homo sapiens, UniProt P27448); experiment: KinomeScan; type: binding; conditions: 1uM
T2 construct: purchased DiscoveRx KINOMEscan

[3] = biological target: T3, ERK1 (Homo sapiens, UniProt P27361); experiment: KinomeScan; type: binding; conditions: 1uM
T3 construct: purchased DiscoveRx KINOMEscan

[4] = biological target: T4, GSK3A (Homo sapiens, UniProt P49840); experiment: KinomeScan; type: binding; conditions: 1uM
T4 construct: purchased DiscoveRx KINOMEscan

[5] = biological target: T5, AKT3 (Homo sapiens, UniProt Q9Y243); experiment: KinomeScan; type: binding; conditions: 1uM
T5 construct: purchased DiscoveRx KINOMEscan

[6] = biological target: T6, PIP5K1C (Homo sapiens, UniProt O60331); experiment: KinomeScan; type: binding; conditions: 1uM
T6 construct: purchased DiscoveRx KINOMEscan

[7] = biological target: T7, ACVR2B (Homo sapiens, UniProt Q13705); experiment: KinomeScan; type: binding; conditions: 1uM
T7 construct: purchased DiscoveRx KINOMEscan
T7 sequence (Q13705 19-512): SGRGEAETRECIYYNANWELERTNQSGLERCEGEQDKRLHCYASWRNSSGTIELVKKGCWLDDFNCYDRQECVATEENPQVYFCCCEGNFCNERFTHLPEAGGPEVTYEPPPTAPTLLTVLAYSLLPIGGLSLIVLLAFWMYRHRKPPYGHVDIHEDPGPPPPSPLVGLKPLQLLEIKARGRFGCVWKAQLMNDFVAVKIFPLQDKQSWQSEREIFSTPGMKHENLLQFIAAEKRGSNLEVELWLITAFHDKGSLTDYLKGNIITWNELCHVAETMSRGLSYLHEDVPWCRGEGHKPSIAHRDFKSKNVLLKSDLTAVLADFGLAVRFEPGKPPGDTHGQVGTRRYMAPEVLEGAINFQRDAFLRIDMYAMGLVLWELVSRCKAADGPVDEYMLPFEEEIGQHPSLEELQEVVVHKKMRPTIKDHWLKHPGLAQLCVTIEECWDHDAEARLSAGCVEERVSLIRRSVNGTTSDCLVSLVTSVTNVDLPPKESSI

[8] = biological target: T8, MAP3K1 (Homo sapiens, UniProt Q13233); experiment: KinomeScan; type: binding; conditions: 1uM
T8 construct: purchased DiscoveRx KINOMEscan

[9] = biological target: PI3Kδ (Homo sapiens, UniProt O00329); experiment: PI3Ks isoform in cell EC50 assay (AKT phosphorylation, Western Blotting); type: cell-based; design: endogenous in cells; host or cells: Raji; conditions: Raji cells, 1μg/ml anti-IgM, Akt phosphorylation at T308; read-out: cellular EC50 PI3K Delta
[10] = biological target: T9, PKNB(M.tuberculosis) (Mycobacterium tuberculosis, UniProt P9WI81); experiment: KinomeScan; type: binding; conditions: 1uM
T9 construct: purchased DiscoveRx KINOMEscan

[11] = biological target: T10, MERTK (Homo sapiens, UniProt Q12866); experiment: KinomeScan; type: binding; conditions: 1uM
T10 construct: purchased DiscoveRx KINOMEscan

[12] = biological target: T11, SGK (Homo sapiens, UniProt O00141); experiment: KinomeScan; type: binding; conditions: 1uM
T11 construct: purchased DiscoveRx KINOMEscan

[13] = biological target: T12, LKB1 (Homo sapiens, UniProt Q15831); experiment: KinomeScan; type: binding; conditions: 1uM
T12 construct: purchased DiscoveRx KINOMEscan

[14] = biological target: T13, BUB1 (Homo sapiens, UniProt O43683); experiment: KinomeScan; type: binding; conditions: 1uM
T13 construct: purchased DiscoveRx KINOMEscan

[15] = biological target: T14, WNK1 (Homo sapiens, UniProt Q9H4A3); experiment: KinomeScan; type: binding; conditions: 1uM
T14 construct: purchased DiscoveRx KINOMEscan

[16] = biological target: T15, MAP4K2 (Homo sapiens, UniProt Q12851); experiment: KinomeScan; type: binding; conditions: 1uM
T15 construct: purchased DiscoveRx KINOMEscan

[17] = biological target: T16, CSNK1E (Homo sapiens, UniProt P49674); experiment: KinomeScan; type: binding; conditions: 1uM
T16 construct: purchased DiscoveRx KINOMEscan

[18] = biological target: T17, FGFR2 (Homo sapiens, UniProt P21802); experiment: KinomeScan; type: binding; conditions: 1uM
T17 construct: purchased DiscoveRx KINOMEscan

[19] = biological target: T18, CAMK2A (Homo sapiens, UniProt Q9UQM7); experiment: KinomeScan; type: binding; conditions: 1uM
T18 construct: purchased DiscoveRx KINOMEscan
T18 sequence (Q9UQM7 whole entry): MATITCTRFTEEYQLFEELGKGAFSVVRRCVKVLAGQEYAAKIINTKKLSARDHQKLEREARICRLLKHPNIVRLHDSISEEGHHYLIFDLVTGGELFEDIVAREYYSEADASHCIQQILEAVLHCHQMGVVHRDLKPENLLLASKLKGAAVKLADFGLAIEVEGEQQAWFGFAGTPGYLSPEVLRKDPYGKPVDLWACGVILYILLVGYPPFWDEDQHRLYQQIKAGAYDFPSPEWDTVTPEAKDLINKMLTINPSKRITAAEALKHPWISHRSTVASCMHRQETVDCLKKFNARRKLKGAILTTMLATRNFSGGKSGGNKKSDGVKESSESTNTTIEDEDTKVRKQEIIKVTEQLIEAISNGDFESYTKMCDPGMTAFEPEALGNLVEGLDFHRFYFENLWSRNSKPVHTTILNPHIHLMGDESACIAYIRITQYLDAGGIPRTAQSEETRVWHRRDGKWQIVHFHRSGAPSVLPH

[20] = biological target: T19, EIF2AK1 (Homo sapiens, UniProt Q9BQI3); experiment: KinomeScan; type: binding; conditions: 1uM
T19 construct: purchased DiscoveRx KINOMEscan

[21] = biological target: T20, MAP4K4 (Homo sapiens, UniProt O95819); experiment: KinomeScan; type: binding; conditions: 1uM
T20 construct: purchased DiscoveRx KINOMEscan
T20 sequence (O95819 whole entry): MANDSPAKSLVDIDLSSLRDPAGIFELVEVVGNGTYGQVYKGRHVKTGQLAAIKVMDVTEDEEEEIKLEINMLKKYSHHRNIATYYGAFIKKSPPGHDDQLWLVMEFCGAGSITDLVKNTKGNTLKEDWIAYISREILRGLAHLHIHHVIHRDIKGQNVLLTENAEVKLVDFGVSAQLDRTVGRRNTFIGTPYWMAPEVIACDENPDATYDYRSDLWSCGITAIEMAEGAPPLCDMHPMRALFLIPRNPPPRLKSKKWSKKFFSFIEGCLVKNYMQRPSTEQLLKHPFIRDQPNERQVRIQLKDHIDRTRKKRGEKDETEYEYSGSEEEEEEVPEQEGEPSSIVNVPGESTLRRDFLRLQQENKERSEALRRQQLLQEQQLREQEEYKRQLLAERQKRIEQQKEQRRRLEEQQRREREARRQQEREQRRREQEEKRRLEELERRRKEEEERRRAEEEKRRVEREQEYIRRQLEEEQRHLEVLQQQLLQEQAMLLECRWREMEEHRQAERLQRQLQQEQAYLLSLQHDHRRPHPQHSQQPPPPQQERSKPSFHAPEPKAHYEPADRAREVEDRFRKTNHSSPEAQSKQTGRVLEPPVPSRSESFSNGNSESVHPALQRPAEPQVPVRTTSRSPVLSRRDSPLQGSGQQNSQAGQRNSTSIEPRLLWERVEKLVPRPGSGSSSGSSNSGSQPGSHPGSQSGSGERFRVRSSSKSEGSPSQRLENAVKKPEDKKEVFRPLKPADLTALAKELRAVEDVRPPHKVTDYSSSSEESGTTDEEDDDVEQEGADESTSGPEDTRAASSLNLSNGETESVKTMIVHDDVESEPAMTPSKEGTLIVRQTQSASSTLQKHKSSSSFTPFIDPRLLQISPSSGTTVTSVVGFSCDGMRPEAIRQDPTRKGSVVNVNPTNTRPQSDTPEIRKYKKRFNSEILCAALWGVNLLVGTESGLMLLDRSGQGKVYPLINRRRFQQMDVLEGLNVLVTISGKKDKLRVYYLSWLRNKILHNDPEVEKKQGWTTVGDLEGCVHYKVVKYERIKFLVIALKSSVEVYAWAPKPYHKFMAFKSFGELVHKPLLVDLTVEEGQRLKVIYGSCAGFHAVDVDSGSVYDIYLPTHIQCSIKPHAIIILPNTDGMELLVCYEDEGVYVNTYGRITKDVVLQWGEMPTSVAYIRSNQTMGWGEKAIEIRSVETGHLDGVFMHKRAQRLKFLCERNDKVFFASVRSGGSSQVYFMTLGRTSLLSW

[22] = biological target: T21, PCTK2 (Homo sapiens, UniProt Q00537); experiment: KinomeScan; type: binding; conditions: 1uM
T21 construct: purchased DiscoveRx KINOMEscan

[23] = biological target: T22, YANK2 (Homo sapiens, UniProt Q9NY57); experiment: KinomeScan; type: binding; conditions: 1uM
T22 construct: purchased DiscoveRx KINOMEscan

[24] = biological target: T23, ERK8 (Homo sapiens, UniProt Q8TD08); experiment: KinomeScan; type: binding; conditions: 1uM
T23 construct: purchased DiscoveRx KINOMEscan

[25] = biological target: T24, PRKCI (Homo sapiens, UniProt P41743); experiment: KinomeScan; type: binding; conditions: 1uM
T24 construct: purchased DiscoveRx KINOMEscan

[26] = biological target: T25, CAMK1D (Homo sapiens, UniProt Q8IU85); experiment: KinomeScan; type: binding; conditions: 1uM
T25 construct: purchased DiscoveRx KINOMEscan

[27] = biological target: T26, KIT(V559D) (Homo sapiens, UniProt P10721, V559D); experiment: KinomeScan; type: binding; conditions: 1uM
T26 construct: purchased DiscoveRx KINOMEscan
T26 sequence (P10721 26-976 V559D): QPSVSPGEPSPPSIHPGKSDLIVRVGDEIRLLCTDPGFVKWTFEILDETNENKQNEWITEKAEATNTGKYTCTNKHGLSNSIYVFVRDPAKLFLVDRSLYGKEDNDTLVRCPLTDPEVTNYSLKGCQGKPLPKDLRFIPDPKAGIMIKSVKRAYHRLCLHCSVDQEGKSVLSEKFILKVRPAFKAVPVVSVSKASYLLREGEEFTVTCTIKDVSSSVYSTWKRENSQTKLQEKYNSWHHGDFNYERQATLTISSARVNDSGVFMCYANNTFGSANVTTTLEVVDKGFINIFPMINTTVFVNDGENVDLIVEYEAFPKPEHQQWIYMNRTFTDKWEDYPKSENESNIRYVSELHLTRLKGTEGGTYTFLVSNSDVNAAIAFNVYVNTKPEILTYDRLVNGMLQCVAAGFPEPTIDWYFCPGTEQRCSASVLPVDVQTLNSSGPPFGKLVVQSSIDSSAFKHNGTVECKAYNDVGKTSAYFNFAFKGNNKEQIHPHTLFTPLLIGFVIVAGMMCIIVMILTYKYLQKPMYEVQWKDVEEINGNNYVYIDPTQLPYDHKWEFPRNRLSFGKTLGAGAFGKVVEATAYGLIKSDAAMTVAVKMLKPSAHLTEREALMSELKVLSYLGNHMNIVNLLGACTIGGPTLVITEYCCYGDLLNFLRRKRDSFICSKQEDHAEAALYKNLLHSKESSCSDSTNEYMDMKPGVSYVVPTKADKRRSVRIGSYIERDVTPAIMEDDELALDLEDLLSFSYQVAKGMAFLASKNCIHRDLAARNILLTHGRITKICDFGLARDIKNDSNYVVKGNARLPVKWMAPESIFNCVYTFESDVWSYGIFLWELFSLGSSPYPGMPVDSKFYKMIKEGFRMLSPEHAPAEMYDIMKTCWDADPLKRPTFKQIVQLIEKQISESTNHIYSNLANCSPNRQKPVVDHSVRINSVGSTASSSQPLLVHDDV

[28] = biological target: T27, ABL1(T315I)-phosphorylated (Homo sapiens, UniProt P00519, T315I); experiment: KinomeScan; type: binding; conditions: 1uM
T27 construct: purchased DiscoveRx KINOMEscan

[29] = biological target: T28, ITK (Homo sapiens, UniProt Q08881); experiment: KinomeScan; type: binding; conditions: 1uM
T28 construct: purchased DiscoveRx KINOMEscan

[30] = biological target: T29, JNK3 (Homo sapiens, UniProt P53779); experiment: KinomeScan; type: binding; conditions: 1uM
T29 construct: purchased DiscoveRx KINOMEscan

[31] = biological target: T30, CDK4-cyclinD3 (Homo sapiens, UniProt P11802); experiment: KinomeScan; type: binding; conditions: 1uM
T30 construct: purchased DiscoveRx KINOMEscan

[32] = biological target: T31, JNK1 (Homo sapiens, UniProt P45983); experiment: KinomeScan; type: binding; conditions: 1uM
T31 construct: purchased DiscoveRx KINOMEscan

[33] = biological target: T32, EGFR(L747-E749del, A750P) (Homo sapiens, UniProt P00533, A750P/DEL747-749); experiment: KinomeScan; type: binding; conditions: 1uM
T32 construct: purchased DiscoveRx KINOMEscan

[34] = biological target: T33, PLK1 (Homo sapiens, UniProt P53350); experiment: KinomeScan; type: binding; conditions: 1uM
T33 construct: purchased DiscoveRx KINOMEscan

[35] = biological target: T34, PHKG1 (Homo sapiens, UniProt Q16816); experiment: KinomeScan; type: binding; conditions: 1uM
T34 construct: purchased DiscoveRx KINOMEscan

[36] = biological target: T35, PIP5K1A (Homo sapiens, UniProt Q99755); experiment: KinomeScan; type: binding; conditions: 1uM
T35 construct: purchased DiscoveRx KINOMEscan

[37] = biological target: T36, CHEK1 (Homo sapiens, UniProt O14757); experiment: KinomeScan; type: binding; conditions: 1uM
T36 construct: purchased DiscoveRx KINOMEscan

[38] = biological target: T37, MLK3 (Homo sapiens, UniProt Q16584); experiment: KinomeScan; type: binding; conditions: 1uM
T37 construct: purchased DiscoveRx KINOMEscan
T37 sequence (Q16584 whole entry): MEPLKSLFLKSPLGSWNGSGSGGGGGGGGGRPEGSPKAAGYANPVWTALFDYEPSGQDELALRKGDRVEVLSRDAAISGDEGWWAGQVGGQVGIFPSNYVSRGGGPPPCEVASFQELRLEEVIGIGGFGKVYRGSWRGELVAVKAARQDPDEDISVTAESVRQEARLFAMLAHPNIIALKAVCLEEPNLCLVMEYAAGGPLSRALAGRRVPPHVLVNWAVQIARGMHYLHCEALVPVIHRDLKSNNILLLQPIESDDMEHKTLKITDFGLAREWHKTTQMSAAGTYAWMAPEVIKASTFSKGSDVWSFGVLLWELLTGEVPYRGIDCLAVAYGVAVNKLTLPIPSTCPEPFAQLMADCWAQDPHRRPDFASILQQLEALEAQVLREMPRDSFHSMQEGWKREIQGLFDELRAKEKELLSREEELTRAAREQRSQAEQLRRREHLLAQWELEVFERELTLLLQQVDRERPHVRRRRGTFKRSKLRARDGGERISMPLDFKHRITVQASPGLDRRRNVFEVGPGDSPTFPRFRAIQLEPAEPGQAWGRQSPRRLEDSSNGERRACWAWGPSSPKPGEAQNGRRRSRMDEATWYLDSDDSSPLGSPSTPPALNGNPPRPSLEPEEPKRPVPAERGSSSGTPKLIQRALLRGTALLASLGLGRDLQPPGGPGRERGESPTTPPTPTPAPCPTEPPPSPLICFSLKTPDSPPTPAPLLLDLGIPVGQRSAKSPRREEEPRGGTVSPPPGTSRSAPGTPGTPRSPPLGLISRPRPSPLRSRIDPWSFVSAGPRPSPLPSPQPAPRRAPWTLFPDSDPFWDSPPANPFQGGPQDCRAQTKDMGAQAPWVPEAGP

[39] = biological target: T38, EGFR(L747-S752del, P753S) (Homo sapiens, UniProt P00533, DEL747-752/P753S); experiment: KinomeScan; type: binding; conditions: 1uM
T38 construct: purchased DiscoveRx KINOMEscan

[40] = biological target: T39, PIK3CA(C420R) (Homo sapiens, UniProt P42336, C420R); experiment: KinomeScan; type: binding; conditions: 1uM
T39 construct: purchased DiscoveRx KINOMEscan
T39 sequence (P42336 whole entry C420R): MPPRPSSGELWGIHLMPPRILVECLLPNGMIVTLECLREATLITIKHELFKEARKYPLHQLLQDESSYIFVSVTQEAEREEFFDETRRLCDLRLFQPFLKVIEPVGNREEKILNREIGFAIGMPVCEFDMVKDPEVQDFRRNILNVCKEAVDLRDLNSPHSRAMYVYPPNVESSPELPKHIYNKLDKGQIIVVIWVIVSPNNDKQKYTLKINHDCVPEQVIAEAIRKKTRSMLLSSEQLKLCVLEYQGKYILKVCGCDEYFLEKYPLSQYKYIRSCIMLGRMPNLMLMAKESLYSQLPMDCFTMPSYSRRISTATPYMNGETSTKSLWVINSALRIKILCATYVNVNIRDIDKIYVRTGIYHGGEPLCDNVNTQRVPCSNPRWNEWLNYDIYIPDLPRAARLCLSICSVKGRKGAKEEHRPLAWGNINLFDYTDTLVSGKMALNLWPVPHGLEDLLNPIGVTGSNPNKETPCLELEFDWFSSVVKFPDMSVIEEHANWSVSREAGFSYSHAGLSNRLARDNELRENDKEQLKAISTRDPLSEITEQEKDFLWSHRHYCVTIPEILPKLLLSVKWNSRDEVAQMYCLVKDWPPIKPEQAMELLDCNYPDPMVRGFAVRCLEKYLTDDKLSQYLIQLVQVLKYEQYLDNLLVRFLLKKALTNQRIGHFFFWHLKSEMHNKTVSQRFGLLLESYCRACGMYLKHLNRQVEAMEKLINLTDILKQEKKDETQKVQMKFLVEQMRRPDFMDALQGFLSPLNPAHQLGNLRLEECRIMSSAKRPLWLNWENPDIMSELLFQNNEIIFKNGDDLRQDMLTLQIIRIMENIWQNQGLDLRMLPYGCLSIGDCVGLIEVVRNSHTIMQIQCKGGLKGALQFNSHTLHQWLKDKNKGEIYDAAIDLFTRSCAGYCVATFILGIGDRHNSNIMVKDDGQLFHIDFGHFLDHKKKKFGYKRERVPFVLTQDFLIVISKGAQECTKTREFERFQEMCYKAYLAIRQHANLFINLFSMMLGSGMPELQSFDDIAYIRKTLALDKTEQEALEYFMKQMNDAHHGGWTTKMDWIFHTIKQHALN

[41] = biological target: T40, RET (Homo sapiens, UniProt P07949); experiment: KinomeScan; type: binding; conditions: 1uM
T40 construct: purchased DiscoveRx KINOMEscan

[42] = biological target: T41, ROCK2 (Homo sapiens, UniProt O75116); experiment: KinomeScan; type: binding; conditions: 1uM
T41 construct: purchased DiscoveRx KINOMEscan

Cc1nc(NC(=O)[C@@H](N)C(C)C)sc1-c1cnc(Cl)c(NS(=O)(=O)c2ccccc2)c1 [PI3KD-IN-015]
KinomeScan p38-gamma [1]: 86
KinomeScan MARK3 [2]: 100
KinomeScan ERK1 [3]: 100
KinomeScan GSK3A [4]: 95
KinomeScan AKT3 [5]: 89
KinomeScan PIP5K1C [6]: 72
KinomeScan ACVR2B [7]: 100
KinomeScan MAP3K1 [8]: 96
pEC50 [9]: 7.89
KinomeScan PKNB(M.tuberculosis) [10]: 79
KinomeScan MERTK [11]: 96
KinomeScan SGK [12]: 70
KinomeScan LKB1 [13]: 79
KinomeScan BUB1 [14]: 100
KinomeScan WNK1 [15]: 100
KinomeScan MAP4K2 [16]: 91
KinomeScan CSNK1E [17]: 100
KinomeScan FGFR2 [18]: 100
KinomeScan CAMK2A [19]: 94
KinomeScan EIF2AK1 [20]: 100
KinomeScan MAP4K4 [21]: 100
KinomeScan PCTK2 [22]: 100
KinomeScan YANK2 [23]: 99
KinomeScan ERK8 [24]: 98
KinomeScan PRKCI [25]: 100
KinomeScan CAMK1D [26]: 94
KinomeScan KIT(V559D) [27]: 87
KinomeScan ABL1(T315I)-phosphorylated [28]: 98
KinomeScan ITK [29]: 100
KinomeScan JNK3 [30]: 100
KinomeScan CDK4-cyclinD3 [31]: 100
KinomeScan JNK1 [32]: 100
KinomeScan EGFR(L747-E749del, A750P) [33]: 100
KinomeScan PLK1 [34]: 90
KinomeScan PHKG1 [35]: 100
KinomeScan PIP5K1A [36]: 84
KinomeScan CHEK1 [37]: 100
KinomeScan MLK3 [38]: 100
KinomeScan EGFR(L747-S752del, P753S) [39]: 100
KinomeScan PIK3CA(C420R) [40]: 4.5
KinomeScan RET [41]: 100
KinomeScan ROCK2 [42]: 85
